# Data published in patent US6541523B2, “Methods for treating or preventing fibromyalgia using very low doses of cyclobenzaprine” (Vela Pharmaceuticals, Inc., priority 1999, dated 2003).
# Read-outs that look alike come from different tables or passages of the source.
# What was measured:
# [1] = system: patients with fibromyalgia
# Excerpt: Quantification of improvement may be measured according to methods known in the art. For example, pain may be measured using tender point count, the McGill Pain Questionnaire, the Arthritis Impact Measurement Scales (AIMS), the Sickness Impact Profile (SIP), the Health Assessment Questionnaire (HAQ) functional disability index, the Symptom Checklist-90R, and dolorimeter scores. […] (Alarcon, Graciela, et al., “Advances in the Treatment of Fibromyalgia: Current Status and Future Directions”, Am. J. Med. Sciences, 315:397-404 (1998).)
# (§1) The quality of sleep (“sleep disturbance”) may be determined, inter alia, by asking the patient if he/she awakened tired or nonrefreshed “never,” “seldom,” “often or usually,” or “always.” Replies of “often or usually” or “always” may be scored as positive and other replies as negative. Patients reports of well-being or relief from “zombie” or “spacey” feelings, feelings of being “run down,” and having difficultly concentrating during waking hours are indications of better quality of sleep or deep, refreshing sleep.
# They were on a dose of ⅓ tablet of cyclobenzaprine (3 33 mg).
# patient four, a person homemaker, presented with complaints of chest pain previously attributed to their known history of mitral valve prolapse. They also complained of a several year history of fatigue.
# patient two, a active grandparent, presented with the new onset of cervical and lumbar muscular pains associated with poor quality sleep and fatigue. The patient was diagnosed with fibromyalgia.
# patient seven, a person homemaker, presented with complaints of diffuse pain and fatigue.
# patient three, a person homemaker, presented with complaints of right trapezius spasm. They had recently been started on paroxetine, 20 mg p.o. qd for mild depression, and had also noted disrupted sleep quality with frequent awakening with resultant fatigue and daytime somnolence. […] They were diagnosed with fibromyalgia and was begun on cyclobenzaprine 10 mg p.o. qHS for the diagnosis of fibromyalgia and possible sleep disturbance due to the SSRI paroxetine.
# patient one, a person homemaker, had recently given birth to a healthy baby, and in during the later stages of pregnancy and in the post-partem period noted fatigue and exhaustion associated with multiple areas of muscular soreness.
# patient six, a executive, presented with complaints of “burning pains” in their muscles, associated with sleep disturbance with frequent awakening and resultant fatigue.
# patient five, a executive, had been tried on multiple medications by a “fibromyalgia specialist,” who according to the patient had performed over $2,000 in blood tests, diagnosing “yeast infection in the blood” and multiple allergies.
# [2] = system: patients with sleep disturbance; conditions: single patient report
# Excerpt: as §1
# fibromyalgia patients [3] = conditions: cited from earlier work
# fibromyalgia patients [4] = conditions: five mgs per day; some fibromyalgia patients; anecdotal; cited from earlier work
# [5] = system: cyclobenzaprine-treated patients; conditions: cited from earlier work
# fibromyalgia patients [6] = conditions: twenty to forty mgs per day; twelve fibromyalgia patients; cited from earlier work
# [7] = ⅓ tablet (3 33 mg), single patient report
smiles,measurement,setting,value
CNCCC=C1c2ccccc2CCc2ccccc21 [nortriptyline],Response to trial of nortriptyline,"[1]; fibromyalgia patient not helped by cyclobenzaprine 2.5 mg, dose not given",did well
"CN(C)CCC=C1c2ccccc2C=Cc2ccccc21 [cyclobenzaprine, 3-(5H-Dibenzo[a,d]cyclohepten-5-ylidene)-N,N-dimethyl-1-propanamine]",Sleep and energy response,[2]; ¼ to ½ tablet (2.5-5 mg),"improved sleep and increased energy, with resolution of their daytime somnolence"
same,Side effects,[2]; ½ tablet (5 mg),“grogginess” during the day
same,Symptom response,"[1]; 10 mg p.o. qHS, single patient report",helping their muscular pains
same,Course after stopping cyclobenzaprine,"[1]; discontinuation of ¼ tablet (2.5 mg), single patient report",immediate return of all of their previous symptoms
same,"Effect on sleep disturbance, fatigue and diffuse pain","[1]; less than 5 mg/day qHS, applicant's summary for many patients",surprisingly effective at treating the sleep disturbance
same,Symptom response,"[1]; ½ tablet (5 mg) p.o. qHS, single patient report",symptoms abated
same,Side effects,[1]; [7],no adverse effects
same,Symptom response,[1]; [7],alleviated their symptoms
same,Difference in efficacy between regimens,fibromyalgia patients [3]; 10 mg/day vs 30 mg/day,no significant difference in efficacy
same,"Tender points, quality of sleep and other symptoms",fibromyalgia patients [3]; 10 mg/day,"decline in the number of tender points and improvement in the quality of sleep, anxiety, fatigue, irritable bowel syndrome and stiffness"
same,"Tender points, quality of sleep and other symptoms",fibromyalgia patients [3]; 30 mg/day,"decline in the number of tender points and improvement in the quality of sleep, anxiety, fatigue, irritable bowel syndrome and stiffness"
same,Response to treatment,fibromyalgia patients [4],responded “favorably”
same,Less common side effects,[5]; cyclobenzaprine treatment,"nausea, tiredness, constipation, blurred vision, nervousness, confusion, abdominal pain and discomfort"
same,Organ toxicity,[5]; recommended doses,No indications of organ toxicity
same,Toxic effects on overdose,[5]; three individuals who ingested between 260 to 900 mg,Toxic effects were reported
same,Alpha non-REM EEG sleep anomaly and mood ratings,fibromyalgia patients [6],did not favorably change
same,Pain (tender point count and dolorimetry),fibromyalgia patients [6],did not experience decreased pain
